In PMC4805609, “Estrogenic Effects of Several BPA Analogs in the Developing Zebrafish Brain” (Frontiers in Neuroscience, 2016):

How the values were obtained:
zfERα = target: T1, zfERα (Danio rerio, UniProt P57717); assay: competitive binding assay vs [3H]-E2 on in vitro translated zfERα; design: containing the coding regions of each zebrafish estrogen receptor cDNA; species or system zebrafish; details: for receptor-binding activity: competition with [3H]-E2, ERα, Figure 8A
T1 sequence (P57717 1-569): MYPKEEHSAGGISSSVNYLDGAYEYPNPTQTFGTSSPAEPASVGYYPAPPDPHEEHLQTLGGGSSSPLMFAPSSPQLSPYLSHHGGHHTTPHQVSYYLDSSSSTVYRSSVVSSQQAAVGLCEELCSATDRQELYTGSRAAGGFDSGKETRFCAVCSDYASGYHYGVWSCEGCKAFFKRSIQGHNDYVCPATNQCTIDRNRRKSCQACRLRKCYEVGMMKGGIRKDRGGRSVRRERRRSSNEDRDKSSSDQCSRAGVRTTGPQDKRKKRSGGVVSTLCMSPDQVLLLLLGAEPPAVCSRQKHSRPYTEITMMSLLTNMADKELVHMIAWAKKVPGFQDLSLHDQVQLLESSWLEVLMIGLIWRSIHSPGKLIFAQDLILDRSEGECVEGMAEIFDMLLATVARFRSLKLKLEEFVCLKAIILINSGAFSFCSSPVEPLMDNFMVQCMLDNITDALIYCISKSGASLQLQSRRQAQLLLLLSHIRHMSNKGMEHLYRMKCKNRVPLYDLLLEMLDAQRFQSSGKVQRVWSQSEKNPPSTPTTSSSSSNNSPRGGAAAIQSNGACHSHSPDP
Protocol: (§1) We also performed a competitive binding assay to test the binding properties of our compounds of interest with the three zfERs (Blair et al., [2000]). The three zebrafish estrogen receptor proteins were synthesized using the Topo-pcDNA3 expression vector containing the coding region of zfERα, zfERβ1, and zfERβ2 (Menuet et al., [2002]). The TNT Quick Coupled Transcription/Translation Systems kit (Promega, Madison, WI, USA) was used for synthesis of zfER proteins by adding 1 μg of each ER expression vector and according to the manufacturer's protocol. […] IC50 were calculated using GraphPad Prism, version 6.07.

zfERβ1 [1] = target: T2, zfERβ1 (Danio rerio, UniProt Q5PR29); assay: competitive binding assay vs [3H]-E2 on in vitro translated zfERβ1; design: species or system zebrafish
T2 sequence (Q5PR29 1-592): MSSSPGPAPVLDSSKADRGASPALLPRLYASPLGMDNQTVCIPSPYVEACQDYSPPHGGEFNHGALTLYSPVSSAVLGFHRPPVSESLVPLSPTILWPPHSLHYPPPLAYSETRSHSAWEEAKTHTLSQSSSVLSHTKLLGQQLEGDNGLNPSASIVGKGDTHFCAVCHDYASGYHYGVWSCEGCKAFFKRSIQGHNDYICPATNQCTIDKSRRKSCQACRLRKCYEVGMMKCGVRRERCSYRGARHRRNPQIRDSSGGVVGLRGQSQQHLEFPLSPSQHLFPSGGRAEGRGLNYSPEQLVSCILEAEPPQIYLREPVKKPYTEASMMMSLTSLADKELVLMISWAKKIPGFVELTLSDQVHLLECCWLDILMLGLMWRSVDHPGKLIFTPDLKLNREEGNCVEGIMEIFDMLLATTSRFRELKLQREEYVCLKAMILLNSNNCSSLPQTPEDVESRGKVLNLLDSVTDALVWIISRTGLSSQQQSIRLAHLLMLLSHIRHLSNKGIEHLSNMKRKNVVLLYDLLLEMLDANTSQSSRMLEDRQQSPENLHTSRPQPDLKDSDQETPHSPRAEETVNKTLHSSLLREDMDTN
Protocol: as §1

zfERβ1 [2] = target: T2, zfERβ1; assay: cyp19a1b-luciferase reporter gene assay in U251-MG glial cells transfected with zfERβ1; format: cell-based, zebrafish; details: 10–6 M, 24 h, U251-MG cells with ERβ1, vs DMSO
Source text: The zfER-α, zfER-β1, and zfER-β2 expression vectors correspond to Topo-pcDNA3 expression vector (Invitrogen, San Diego, CA, USA), containing the coding regions of each zebrafish estrogen receptor cDNA as previously described (Menuet et al., [2002]). The cyp19a1b-Luciferase plasmid consists of 500 bp of the proximal promoter region of zebrafish cyp19a1b gene, containing an ERE, coupled to the luciferase reporter gene (Menuet et al., [2002]).
(§2) Human U251-MG glial cells were maintained in phenol red-free Dulbecco's Modified Eagle's Medium (DMEM; Life Technologies, Saint Aubin, France) supplemented with 10% fetal calf serum (Biowest, Nuaillé, France), 4 mM L-Glutamine (Gibco, Carlsbad, CA, USA) and 1 mM Na-Pyruvate (Life Technologies, Saint Aubin, France) and kept at 37°C and 5% CO2 atmosphere (Le Page et al., [2006]). The medium was also supplemented with 20 U/mL penicillin, 20 μg/mL streptomycin, and 50 ng/mL amphotericin B (Gibco). For transfections, cells were plated in 24-well plates at a density of 25,000 cells/ml in the same medium, except the fetal calf serum was charcoal-treated and used at a concentration of 2.5%. Cells were transfected with 25 ng/well either the vector expression containing or not the zfERα, zfERβ1, zfERβ2 coding region and cytomegalovirus [CMV]−β-Galactosidase, and 150 ng/well of the cyp19a1b-Luciferase reporter plasmid, using JetPEI as a transfection reagent (Polyplus Transfection, Illkirch, France). […] Luciferase activity was measured 24 h later (Luciferase assay system, Promega, Madison, WI, USA). β-Galactosidase activity was used to normalize transfection efficiency. Chemicals were tested in at least 3 independent experiments and each experiment was performed in triplicate.

zfERβ2 [3] = target: T3, zfERβ2 (Danio rerio, UniProt Q7ZU32); assay: cyp19a1b-luciferase reporter gene assay in U251-MG glial cells transfected with zfERβ2; format: cell-based, zebrafish; details: 10–6 M, 24 h, U251-MG cells with ERβ2, vs DMSO
T3 sequence (Q7ZU32 1-553): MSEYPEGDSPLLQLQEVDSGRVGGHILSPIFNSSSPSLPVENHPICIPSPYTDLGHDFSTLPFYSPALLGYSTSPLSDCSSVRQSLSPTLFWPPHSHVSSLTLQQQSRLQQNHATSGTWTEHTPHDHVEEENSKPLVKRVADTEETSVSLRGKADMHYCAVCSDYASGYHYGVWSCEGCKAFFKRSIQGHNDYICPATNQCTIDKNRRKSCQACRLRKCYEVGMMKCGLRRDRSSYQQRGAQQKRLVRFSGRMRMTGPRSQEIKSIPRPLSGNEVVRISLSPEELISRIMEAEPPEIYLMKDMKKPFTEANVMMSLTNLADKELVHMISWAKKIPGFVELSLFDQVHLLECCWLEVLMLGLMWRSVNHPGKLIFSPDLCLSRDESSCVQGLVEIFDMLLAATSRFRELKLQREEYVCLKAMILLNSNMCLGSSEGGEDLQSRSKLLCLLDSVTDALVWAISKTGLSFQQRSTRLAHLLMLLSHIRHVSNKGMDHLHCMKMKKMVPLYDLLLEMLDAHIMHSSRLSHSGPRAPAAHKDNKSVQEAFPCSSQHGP
Protocol: as §2, with “The” for “Human U251-MG glial cells were maintained in phenol red-free Dulbecco's Modified Eagle's Medium (DMEM; Life Technologies, Saint Aubin, France) supplemented with 10% fetal calf serum (Biowest, Nuaillé, France), 4 mM L-Glutamine (Gibco, Carlsbad, CA, USA) and 1 mM Na-Pyruvate (Life Technologies, Saint Aubin, France) and kept at 37°C and 5% CO2 atmosphere (Le Page et al., [2006]). The”

zfERβ2 [4] = target: T3, zfERβ2
Protocol: as §1

Compound | receptor-binding activity (zfERα) | IC50 (zfERα; displacement of 10^−9 M [3H]-E2, ERα) [nM] | IC50 (zfERβ1 [1]) [nM] | cyp19a1b-luciferase reporter gene induction (zfERβ1 [2]) | cyp19a1b-luciferase reporter gene induction (zfERβ2 [3]) | receptor-binding activity (zfERβ2 [4]) | receptor-binding activity (zfERβ1 [1]; competition with [3H]-E2, ERβ1, Figure 8B)
Oc1ccc(C(c2ccc(O)cc2)(C(F)(F)F)C(F)(F)F)cc1 [BPAF, 2,2-bis(4-hydroxylphenyl)hexafluoropropane] | bind in vitro to ERα receptor | 76 | 660 |  |  |  | 
CC(c1ccccc1)(c1ccc(O)cc1)c1ccc(O)cc1 [BPAP, 4,4′-(1-phenylethylidene)bisphenol] |  |  |  | did not stimulate | did not stimulate |  | 
O=S(=O)(c1ccc(O)cc1)c1ccc(O)cc1 [BPS, bis-(4-hydroxyphenyl)sulfone] | almost no binding affinities |  |  | did not stimulate | did not stimulate | almost no binding affinities | almost no binding affinities
